Experimental findings from ChEMBL document CHEMBL1201862, “PubChem BioAssay data set” (2004) are described below.

The structures appear in SMILES notation.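 Cultured in 96-well plates, cells were exposed to test compound for 48 hours across five concentrations. GI50 = concentration required for 50% inhibition of growth.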 Active and inactive are the calls of the source. Cut-off read from the data, not from the text of the source: active = GI50 up to about 1.1 µM and inactive = higher.

Experiment in all cases: NCI tumour cell line growth inhibition, 48 h
Test [1] has as its system BT-549.
In test [2] the test system is CAKI-1.
The test system of test [3] is CCRF-CEM.
Test [4] deals with DU-145.
Test [5] concerns HCT-116.
Test [6] deals with Hs-578T.
Test [7] relates to K562.
For test [8], the system named is KM12.
The subject of test [9] is MCF7.
In test [10] the test system is MDA-MB-231.
Test [11] deals with MDA-N.
In test [12] the test system is NCI/ADR-RES.
Test [13] relates to RXF 393.
Test [14] concerns SF-295.
In test [15] the test system is SK-MEL-2.
The test system of test [16] is SNB-19.
Test [17] has as its system SNB-75.
The subject of test [18] is SR.
Test [19] deals with TK-10.
In test [20] the test system is U-251.

As for `CC(=O)OCC1OC(n2c3c(cc(C#N)c2=S)CCC3)C(OC(C)=O)C(OC(C)=O)C1OC(C)=O` (stereo not given), the GI50 in test [1], in test [2], in test [3], in test [4], in test [5] and in test [6] was > 100 µM (inactive) throughout. Moreover, the GI50 in test [7], in test [8], in test [9], in test [10], in test [11] and in test [12] was > 100 µM (inactive) throughout. Also, the GI50 in test [13] was > 100 µM (inactive); in test [14], > 100 µM (inactive); in [15], > 100 µM (inactive); in [16], > 100 µM (inactive); in test [17], 68.1 µM (inactive); in [18], 68.4 µM (inactive). Further, the GI50 in test [19] and in [20] was > 100 µM (inactive) each time.

For `CC(=O)N(CCc1ccccc1)C(C)(C#N)c1ccccc1` (stereo not given), the GI50 in [1], in test [2], in test [3], in [4], in [5] and in [6] was > 100 µM (inactive) throughout. For the same compound, the GI50 in [7], in [8], in [9], in test [10], in test [11] and in [12] was > 100 µM (inactive) throughout. Besides, the GI50 in test [13], in test [14], in test [15], in [16], in [17] and in test [18] was > 100 µM (inactive) each time. The GI50 in [19] and in test [20] was > 100 µM (inactive) each time.

In the case of `CC(=O)O[C@H]1C#C/C=C\C#CC[C@@H]2C(=O)N(C(=O)OC(C)(C)C)[C@@H]12`, the GI50 in test [1] is 33.5 µM (inactive); in test [2] it was 6.46 µM (inactive); in test [3], 1.52 µM (inactive); in test [4], 19.9 µM (inactive); in test [5], 17.4 µM (inactive); in test [6] it was 39.6 µM (inactive). The GI50 was 25.7 µM (inactive) in [7]; 53.7 µM (inactive) in test [8]; 2.34 µM (inactive) in test [9]; 55.3 µM (inactive) in [10]; 39.4 µM (inactive) in test [11]; 15.7 µM (inactive) in test [12]. The GI50 in test [13] was 15.4 µM (inactive); in test [14] it was 21.3 µM (inactive); in [15] it was 41.2 µM (inactive); in test [16], 18.7 µM (inactive); in test [17] it was 21.5 µM (inactive); in [18], 24 µM (inactive). Besides, the GI50 is > 55.1 µM (inactive) in test [19] and 17.7 µM (inactive) in test [20].

`O=[N+]([O-])c1ccc(O)c(/C=N/NC(=S)N2CCCCC2)c1`: the GI50 in [1] is 6.14 µM (inactive); in test [2], 3.51 µM (inactive); in test [3], 0.728 µM (active); in [4], 3.83 µM (inactive); in test [5], 3.21 µM (inactive); in [6], 13.8 µM (inactive). For the same compound, the GI50 is 4.95 µM (inactive) in test [7]; 3.59 µM (inactive) in test [8]; 4.55 µM (inactive) in test [9]; 5.89 µM (inactive) in [10]; 8.26 µM (inactive) in test [11]; 1.59 µM (inactive) in test [12]. Also, the GI50 in test [13] is 6.05 µM (inactive); in [14], 3.01 µM (inactive); in [15], 11.3 µM (inactive); in test [16], 4.69 µM (inactive); in test [17], 4.22 µM (inactive); in test [18] it was 2.43 µM (inactive). Also, the GI50 is 4.98 µM (inactive) in test [19] and 3.53 µM (inactive) in test [20].

Take `Cn1c2ccc(F)cc2c2ccc3c(c21)C(=O)C=CC3=O`: the GI50 in test [1] is 14 µM (inactive); in test [2], 4.23 µM (inactive); in test [3], 0.544 µM (active); in test [4], 22 µM (inactive); in test [5], 6.73 µM (inactive); in test [6], 29.9 µM (inactive). Besides, the GI50 is 1.63 µM (inactive) in [7]; 31.5 µM (inactive) in test [8]; 2.2 µM (inactive) in [9]; 4.09 µM (inactive) in test [10]; 13.3 µM (inactive) in test [11]; 20.2 µM (inactive) in test [12]. Besides, the GI50 was 3.28 µM (inactive) in test [13]; 66.1 µM (inactive) in test [14]; 23.1 µM (inactive) in test [15]; 50.8 µM (inactive) in test [16]; 33.3 µM (inactive) in test [17]; 1.56 µM (inactive) in [18]. The GI50 in [19] was 4.56 µM (inactive); in [20], 14.3 µM (inactive).

`C=CC(O)C#Cc1cnc(OC)nc1OC` (stereo not given): the GI50 in test [1] is > 100 µM (inactive); in test [2], 35.1 µM (inactive); in test [3], 17.1 µM (inactive); in test [4] it was > 100 µM (inactive); in [5], 82.8 µM (inactive); in [6] it was > 100 µM (inactive). For the same compound, the GI50 was 23.9 µM (inactive) in [7]; 86.7 µM (inactive) in test [8]; 14.5 µM (inactive) in [9]; > 100 µM (inactive) in test [10]; > 100 µM (inactive) in test [11]; > 100 µM (inactive) in test [12]. In addition, the GI50 in [13] is > 100 µM (inactive); in test [14], > 100 µM (inactive); in [15] it was > 100 µM (inactive); in test [16], > 100 µM (inactive); in [17], 65.8 µM (inactive); in test [18], > 100 µM (inactive). Further, the GI50 in [19] and in [20] was > 100 µM (inactive) throughout.

Turning to `O=C(Oc1cccnc1)c1cc2cc(CCl)ccc2oc1=O`, the GI50 in test [1] is 24.8 µM (inactive); in test [2] it was 18.7 µM (inactive); in test [3], 20.7 µM (inactive); in test [4], 18.8 µM (inactive); in [5], 17.7 µM (inactive); in [6] it was 25.4 µM (inactive). The GI50 in [7] is 19.5 µM (inactive); in test [8] it was 31.6 µM (inactive); in test [9], 3.15 µM (inactive); in [10], 20.8 µM (inactive); in test [11] it was 26.5 µM (inactive); in [12], 29.5 µM (inactive). Moreover, the GI50 is 16.4 µM (inactive) in [13]; > 100 µM (inactive) in [14]; 21.7 µM (inactive) in test [15]; 61.9 µM (inactive) in [16]; 29.7 µM (inactive) in test [17]; 24 µM (inactive) in test [18]. The GI50 in test [19] was 20.8 µM (inactive); in test [20] it was 24.3 µM (inactive).
